Assay results taken from the OPERA property sets (Mansouri et al. 2018).

With CC(=O)OCCOc1ccc(-c2ccncc2)cn1 as the molecule, how does the logP read?
The logP was 1.92.

For Cc1nc(N2CCNCC2)c(C#N)cc1-c1ccccc1, which logP is on record?
Its logP is 3.15.

For CC(O)COc1ncc(-c2ccncc2)cc1C#N (centres undefined), which logP is on record?
Its logP is 1.65.

With CC(=O)OCCNc1ccc(-c2ccncc2)c(C)n1 as the molecule, how does the logP read?
The logP was 2.59.

For CC(=O)OCCNc1ccc(-c2ccncc2)cn1, which logP is on record?
The logP was 2.

Which logP does the source give for Cc1nc(NCCN)c(C#N)cc1-c1ccncc1 here?
Its logP is 1.91.

Which logP does the source give for COc1nc(C)c(-c2ccncc2)cc1C#N here?
The logP was 2.41.

Which logP does the source give for CCOc1ncc(-c2ccncc2)cc1C#N here?
Its logP is 2.59.

Which logP does the source give for O=C(OCCCNc1ccc(-c2ccncc2)cn1)c1ccccc1 here?
Its logP is 4.06.

For COCCCNc1ncc(-c2ccncc2)cc1C#N, which logP is on record?
Its logP is 2.03.

With CCC(=O)OCCNc1ccc(-c2ccncc2)cn1 as the molecule, how does the logP read?
Its logP is 2.47.

For CCC(CO)Nc1ncc(-c2ccncc2)cc1C#N (centres undefined), which logP is on record?
Its logP is 1.04.

With CC(=O)OCCCOc1ccc(-c2ccncc2)cn1 as the molecule, how does the logP read?
Its logP is 2.48.

For N#Cc1cc(-c2ccncc2)cnc1NCCCCO, which logP is on record?
Its logP is 1.93.
